We go through 16 compounds from ChEMBL document CHEMBL1201862, “PubChem BioAssay data set” (2004).

Molecules are shown by their SMILES.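 Growth conditions: 96-well plates. Treatment: test compound, 48 hours, 5 concentrations. Analysis: linear interpolation between bracketing concentrations; unreached endpoints set to highest concentration. GI50: concentration for 50% inhibition of growth.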 Active and inactive are the calls of the source. Rule as the data show it: active = GI50 up to about 1.1 µM and inactive = higher.

Among the test systems are SN12C; DLD-1; MOLT-4; ACHN; KM-20L2; M14; RPMI-8226; CCRF-CEM; CAKI-1; DMS-114; DMS-273; SR; DU-145; PC-3; T47D; MCF7; BT-549; MDA-MB-231; NCI/ADR-RES; M19-MEL.
Assay in all cases: DTP human tumour cell line panel, 48 h

A word on the GI50: it is the concentration at which growth is held to half of that of the control.

As for `CC12CCC(=O)N1c1cnccc1N2` (stereo not given), the GI50 in the experiment with SN12C, with DLD-1, with MOLT-4, with ACHN, with KM-20L2 and in the experiment on M14 was > 100 µM (inactive) each time. Also, the GI50 in the experiment on RPMI-8226, in the experiment on CCRF-CEM, in the experiment on CAKI-1, with DMS-114, in the experiment with DMS-273 and in the experiment on SR was > 100 µM (inactive) throughout.
In the case of `CCOc1ncn(-c2ccc(NC(=S)Nc3cccc(O)c3)cc2)n1`, the GI50 in the experiment on DU-145, in the experiment on SN12C, in the experiment with MOLT-4, with PC-3, in the experiment on T47D and with M14 was > 100 µM (inactive) in each case. Also, the GI50 in the experiment on RPMI-8226, with CCRF-CEM, in the experiment with SR, with MCF7, in the experiment on BT-549 and in the experiment with MDA-MB-231 was > 100 µM (inactive) in each case.
As to `CC(=O)O[C@H]1CC[C@H]2[C@@H]3CCC(C(C)=O)[C@H](C(=O)O)[C@H]3CC[C@]12C` (stereo not given in full), the GI50 in the experiment on MOLT-4, in the experiment with PC-3, in the experiment with M14, with RPMI-8226, in the experiment with NCI/ADR-RES and in the experiment with CCRF-CEM was > 100 µM (inactive) in each case. The GI50 in the experiment with CAKI-1, in the experiment on SR, in the experiment with MCF7, in the experiment on BT-549 and in the experiment on MDA-MB-231 was > 100 µM (inactive) throughout.
As for `CC1(C)OC[C@H](C(=N)OCc2ccccc2)O1`, the GI50 in the experiment with SN12C, in the experiment with DLD-1, with MOLT-4, in the experiment on ACHN, with M19-MEL and with KM-20L2 was > 100 µM (inactive) in each case. Further, the GI50 in the experiment on M14, in the experiment on RPMI-8226, with CCRF-CEM, with CAKI-1, with DMS-114 and in the experiment with DMS-273 was > 100 µM (inactive) throughout. Also, the GI50 in the experiment with SR is > 100 µM (inactive).
For the compound `N#C/C(=C\c1ccc(Cl)cc1)c1nc2ccccc2c(=O)[nH]1`, the GI50 is > 100 µM (inactive) with DU-145; > 100 µM (inactive) in the experiment with SN12C; > 100 µM (inactive) in the experiment with MOLT-4; > 100 µM (inactive) with PC-3; 65.8 µM (inactive) with ACHN; > 100 µM (inactive) in the experiment on T47D. For the same compound, the GI50 in the experiment on M14, in the experiment on RPMI-8226, with NCI/ADR-RES, with CCRF-CEM, with CAKI-1 and in the experiment on SR was > 100 µM (inactive) in each case. Moreover, the GI50 in the experiment with MCF7 is > 100 µM (inactive); in the experiment with BT-549, 23.4 µM (inactive); in the experiment with MDA-MB-231, 33.8 µM (inactive).
For `O=C(NN1C(=O)CSC1c1ccc(C(F)(F)F)cc1)c1ccncc1` (stereo not given), the GI50 in the experiment on SN12C is > 100 µM (inactive); in the experiment with DLD-1 it was > 100 µM (inactive); in the experiment with MOLT-4 it was > 100 µM (inactive); in the experiment on M19-MEL, > 100 µM (inactive); in the experiment with KM-20L2, > 100 µM (inactive); in the experiment with RPMI-8226, > 65.6 µM (inactive). The GI50 in the experiment with NCI/ADR-RES, with CCRF-CEM, with CAKI-1, in the experiment on DMS-114, in the experiment on DMS-273 and with MCF7 was > 100 µM (inactive) throughout.
In the case of `O=c1oc2ccccc2n1P(=O)(Oc1ccc(Cl)cc1)n1c(=O)oc2ccccc21`, the GI50 was > 100 µM (inactive) in the experiment on SN12C; > 100 µM (inactive) in the experiment on DLD-1; 39.5 µM (inactive) in the experiment on MOLT-4; > 100 µM (inactive) in the experiment on ACHN; > 100 µM (inactive) in the experiment on M19-MEL; > 100 µM (inactive) in the experiment with KM-20L2. Moreover, the GI50 in the experiment on CCRF-CEM is 18.5 µM (inactive); in the experiment on CAKI-1, > 100 µM (inactive); with DMS-114 it was > 100 µM (inactive); in the experiment with DMS-273 it was 78.9 µM (inactive); in the experiment on SR, > 100 µM (inactive).
As to `CCCCCCCCCCCCCCCc1nnc(S)[nH]1`, the GI50 in the experiment with SN12C is > 100 µM (inactive); in the experiment with DLD-1 it was > 10 µM (inactive); in the experiment on MOLT-4, 20.8 µM (inactive); in the experiment on ACHN, > 100 µM (inactive); with M19-MEL it was > 100 µM (inactive); in the experiment with M14 it was > 100 µM (inactive). In addition, the GI50 with RPMI-8226 was 79.3 µM (inactive); in the experiment on CCRF-CEM, 51.3 µM (inactive); in the experiment on DMS-114, 60.4 µM (inactive); with SR it was 29.6 µM (inactive).
In the case of `Nc1n[nH]c2c1Cc1c(n(Cc3ccc(Cl)cc3)c3ccccc13)C(=O)N2`, the GI50 is 12 µM (inactive) with DU-145; 14.5 µM (inactive) in the experiment on SN12C; 5.66 µM (inactive) in the experiment with MOLT-4; 11.2 µM (inactive) in the experiment on PC-3; 12.3 µM (inactive) in the experiment with T47D; 13.2 µM (inactive) in the experiment with M14. Also, the GI50 is 19.9 µM (inactive) with NCI/ADR-RES; 8.38 µM (inactive) with CCRF-CEM; 11.4 µM (inactive) with CAKI-1; 6.11 µM (inactive) in the experiment on SR; 10.3 µM (inactive) with MCF7; 16.5 µM (inactive) in the experiment on BT-549. Further, the GI50 with MDA-MB-231 was 14.4 µM (inactive).
On to `CN1C(=O)C(C#N)C2C[C@@]1(C)Oc1ccccc12` (stereo not given in full), for which the GI50 in the experiment on DU-145 was > 100 µM (inactive); in the experiment with MOLT-4, 7.29 µM (inactive); in the experiment with PC-3, > 100 µM (inactive); in the experiment with ACHN it was > 100 µM (inactive); in the experiment on M14 it was > 100 µM (inactive); in the experiment with RPMI-8226, > 100 µM (inactive). Moreover, the GI50 in the experiment on NCI/ADR-RES is > 100 µM (inactive); in the experiment with CCRF-CEM, > 100 µM (inactive); in the experiment with CAKI-1, > 100 µM (inactive); in the experiment on MCF7 it was > 100 µM (inactive); in the experiment on BT-549, 64.9 µM (inactive); in the experiment on MDA-MB-231, > 100 µM (inactive).
As for `C=C1CC[C@@H](Br)C(C)(C)[C@]12CCC(C)(O)C(Cl)C2` (stereo not given in full), the GI50 with SN12C was 16.4 µM (inactive); in the experiment on DLD-1, 17.5 µM (inactive); with MOLT-4, 18.7 µM (inactive); with ACHN it was 20.9 µM (inactive); in the experiment with M19-MEL, 18.8 µM (inactive); in the experiment with KM-20L2, 18.3 µM (inactive). In addition, the GI50 is 18.8 µM (inactive) in the experiment on RPMI-8226; 24.2 µM (inactive) with CCRF-CEM; 15.8 µM (inactive) with CAKI-1; 17.2 µM (inactive) in the experiment on DMS-114; 18.8 µM (inactive) in the experiment on DMS-273.
For `CC(=O)/N=C1\N/C(=C/c2cc([N+](=O)[O-])ccc2O)CN1C`, the GI50 in the experiment on DU-145 was > 100 µM (inactive); with SN12C, > 100 µM (inactive); with MOLT-4, 6.31 µM (inactive); in the experiment with PC-3 it was > 100 µM (inactive); in the experiment with ACHN, > 100 µM (inactive); with T47D it was > 100 µM (inactive). Further, the GI50 with M14, in the experiment with NCI/ADR-RES, with CAKI-1, in the experiment with MCF7, in the experiment with BT-549 and with MDA-MB-231 was > 100 µM (inactive) each time.
Take `CCOC(=O)CCc1c(C)c2c(O)cc(O)cc2oc1=O`: the GI50 in the experiment with SN12C is > 100 µM (inactive); with DLD-1 it was > 100 µM (inactive); in the experiment on MOLT-4 it was > 54.6 µM (inactive); in the experiment on M19-MEL, > 100 µM (inactive); in the experiment with KM-20L2, > 100 µM (inactive); in the experiment with RPMI-8226, > 100 µM (inactive). The GI50 in the experiment with NCI/ADR-RES was > 100 µM (inactive); in the experiment on CCRF-CEM it was 26 µM (inactive); with CAKI-1 it was > 100 µM (inactive); in the experiment on DMS-273, > 100 µM (inactive); in the experiment with MCF7, > 100 µM (inactive).
For `CCOC(=O)/C=C1/C(CCCOCc2ccccc2)C2CCCC23CC2(CCN13)OCCO2` (stereo not given), the GI50 is 25.5 µM (inactive) with SN12C; 19 µM (inactive) with DLD-1; 11.4 µM (inactive) in the experiment on MOLT-4; 22.3 µM (inactive) with ACHN; 19.6 µM (inactive) in the experiment with M19-MEL; 22.3 µM (inactive) in the experiment on KM-20L2. For the same compound, the GI50 in the experiment with RPMI-8226 was 6.24 µM (inactive); with CCRF-CEM, 19.5 µM (inactive); in the experiment on DMS-114, 13.9 µM (inactive); in the experiment on DMS-273, 16.8 µM (inactive).
For the compound `CC1=C(SCCO)C(=O)c2ccccc2C1=O`, the GI50 in the experiment on DU-145 was 16 µM (inactive); with SN12C it was 15.6 µM (inactive); in the experiment with MOLT-4, 0.324 µM (active); in the experiment on PC-3, 11.4 µM (inactive); in the experiment on ACHN it was 3.52 µM (inactive); in the experiment on T47D, 3.21 µM (inactive). The GI50 in the experiment with M14 is 14.3 µM (inactive); in the experiment on RPMI-8226, 2.55 µM (inactive); in the experiment on NCI/ADR-RES, 14.3 µM (inactive); in the experiment with CCRF-CEM, 1.82 µM (inactive); in the experiment with CAKI-1 it was 14.9 µM (inactive); in the experiment on SR, 3.21 µM (inactive). Moreover, the results for the GI50 with MCF7, in the experiment on BT-549 and in the experiment on MDA-MB-231 were 3.02 µM (inactive), 17.8 µM (inactive) and 13.7 µM (inactive), respectively.
Turning to `O=C1OC(CN2CCOCC2)CN1/N=C/c1ccc([N+](=O)[O-])o1` (stereo not given) [FURALTADONE], the GI50 in the experiment on DU-145 is 73.3 µM (inactive); with SN12C, 28.7 µM (inactive); in the experiment with MOLT-4, 51.6 µM (inactive); in the experiment with PC-3 it was 54.2 µM (inactive); with ACHN, 35.6 µM (inactive); in the experiment with T47D, 28.8 µM (inactive). In addition, the GI50 is 20.7 µM (inactive) in the experiment on M14; 24.2 µM (inactive) in the experiment with RPMI-8226; 35.4 µM (inactive) with NCI/ADR-RES; 53 µM (inactive) in the experiment with CCRF-CEM; 38.5 µM (inactive) in the experiment on CAKI-1; 36.8 µM (inactive) in the experiment with SR. Moreover, the values for the GI50 in the experiment on MCF7, in the experiment with BT-549 and in the experiment with MDA-MB-231 were 46 µM (inactive), 86.1 µM (inactive) and 33.3 µM (inactive), respectively.
